Data as given in patent US20260078119A1, “DEGRADER COMPOUNDS AND USES THEREOF” (Bristol-Myers Squibb Company, priority 2024, published 2026).

What was measured:
FAK = target: T1, FAK (Homo sapiens, UniProt Q05397); assay: FAK-HiBiT Degradation Assay; assay type: cell-based; details: for DC50: JHH-4-FAK-HiBiT clone d01 cells, two hours incubation, 10-point dose response, 3-fold dilution starting at 1 μM, Nano-Glo HiBiT luminescence, read-out: FAK HiBiT EC50; for FAK HiBiT Ymin: lower limit of the four parameter fit (value A), Ymax derived using DMSO control, JHH-4-FAK-HiBiT cells, two hours
T1 construct: homozygous knock-in of a HiBiT tag (Promega Corporation, Madison, WI) to the C-terminus of the FAK gene in its natural genomic locus; endogenous in cells; host or cells: JHH-4-FAK-HiBiT clone d01 (CRISPR-Cas9 knock-in at the endogenous locus)
Method in brief: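 Degradation read out by HiBiT lytic luminescence after 2 h compound exposure (top concentration 1 μM, 3-fold, 10 points) in JHH-4 clone d01 bearing endogenous FAK-HiBiT knock-in. Four-parameter logistic fit gave EC50 and Ymin; DMSO wells defined Ymax.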

CAL-51 cells = assay: CAL-51 Cell Proliferation Assay; assay type: cell-based; details: for EC50: Homo sapiens, 120 hours incubation, 10-point dose response, 4-fold dilutions starting at 10 μM, Cell-Titer-Glo, read-out: CAL-51 Prolif EC50; for CAL-51 Prolif Ymin: minimal percent of DMSO control observed in the concentrations tested (Ymin-obs), 120 hours
Excerpt: CAL-51 cells were obtained from Bristol Myers Squibb internal cell banks (originally sourced from DSMZ-German Collection of Microorganisms and Cell Cultures GmbH, Germany) and cultured in RPMI complete media (RPMI-1640, 10% Fetal Bovine serum, 1× Antibiotic-Antimycotic, and 1× Non-Essential Amino Acids). Compounds were dispensed into 384-well plates using an acoustic dispenser (Beckman Coulter Life Sciences, Carlsbad, CA) in duplicate with 14 compounds on each plate. For each compound, a 10-point dose response was printed at 4-fold dilutions starting at 10 μM. The DMSO concentration was kept constant for a final assay concentration of 0.1% per well assuming 50 uL final media volume. Compound plates were sealed and frozen at −20° C. until use.
For each assay batch, compound plates were thawed and allowed to reach room temperature, and cells were seeded at 350 cells per well in 50 μl complete RPMI media. After 120 hours of incubation at 37° C. and 5% CO2, cells were lysed by addition of 25 μL of Cell-Titer-Glo Reagent (Promega Corporation, Madison, WI), as per manufacturer's instructions, protected from light, shaken for 20 minutes, and total luminescence read by a CLARIOstar Plus plate reader (BMG LabTech, Cary, NC). Total luminescence signal is linearly correlated with cell number remaining in the well.
Luminescence data was processed per plate by subtracting reagent-only “blank” well luminescence from all measured values and calculating a percent of DMSO control value for each treatment well. Then, to determine the half-maximal effective concentration (EC50) values for cell growth inhibition, a four parameter logistic model was fit to the data for each DMSO-normalized compound: Sigmoidal Dose-Response Model: (FIT=(A+((B−A)/1+((C/x)^D)))) where C is the inflection point (EC50), D is the Hill slope, and A and B are the low and high limits of the fit respectively. The lower limit of the fit (value A) is referred to as Ymin-calculated. The minimal percent of DMSO control that is observed in the concentrations tested for each compound is labeled as “Ymin-obs”, and was recorded and reported in the tables. Sigmoidal fit curves were processed and evaluated using Dotmatics Atlas (Insightful Science, LLC, Boston, MA).

T1 sequence (Q05397 whole entry): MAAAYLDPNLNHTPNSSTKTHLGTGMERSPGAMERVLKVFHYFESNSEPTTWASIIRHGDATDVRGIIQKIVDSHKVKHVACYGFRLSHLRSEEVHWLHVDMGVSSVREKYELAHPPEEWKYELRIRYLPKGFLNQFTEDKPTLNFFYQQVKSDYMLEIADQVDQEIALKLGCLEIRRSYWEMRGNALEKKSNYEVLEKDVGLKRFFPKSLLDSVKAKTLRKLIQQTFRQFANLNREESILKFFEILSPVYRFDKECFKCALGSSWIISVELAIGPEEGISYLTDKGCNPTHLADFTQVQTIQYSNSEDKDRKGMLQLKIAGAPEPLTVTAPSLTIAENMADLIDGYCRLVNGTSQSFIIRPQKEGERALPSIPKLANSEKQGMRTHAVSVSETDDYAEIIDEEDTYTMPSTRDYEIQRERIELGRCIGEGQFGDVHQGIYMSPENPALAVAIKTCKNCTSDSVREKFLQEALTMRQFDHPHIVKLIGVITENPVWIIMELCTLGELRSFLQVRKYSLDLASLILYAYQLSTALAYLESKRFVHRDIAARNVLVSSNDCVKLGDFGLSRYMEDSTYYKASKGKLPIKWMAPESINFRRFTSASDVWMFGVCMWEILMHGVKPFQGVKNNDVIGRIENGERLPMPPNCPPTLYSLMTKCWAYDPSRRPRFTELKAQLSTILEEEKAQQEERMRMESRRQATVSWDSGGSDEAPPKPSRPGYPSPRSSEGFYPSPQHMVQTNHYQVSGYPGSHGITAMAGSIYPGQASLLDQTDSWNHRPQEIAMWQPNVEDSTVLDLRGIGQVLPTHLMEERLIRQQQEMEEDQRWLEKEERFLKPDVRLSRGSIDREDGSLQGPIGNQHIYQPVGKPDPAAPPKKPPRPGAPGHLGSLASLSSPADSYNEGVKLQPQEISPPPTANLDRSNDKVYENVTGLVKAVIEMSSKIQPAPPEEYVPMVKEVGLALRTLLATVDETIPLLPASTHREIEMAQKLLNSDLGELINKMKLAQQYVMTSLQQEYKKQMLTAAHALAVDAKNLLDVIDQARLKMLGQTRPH

| SMILES | DC50 (FAK) | FAK HiBiT Ymin (FAK) | EC50 (CAL-51 cells) | CAL-51 Prolif Ymin (CAL-51 cells) |
| --- | --- | --- | --- | --- |
| O=C1CCC(N2Cc3cc(Cn4cnc5c(-c6ccc(F)cc6F)cc(N6CC(F)C6)nc54)ccc3C2=O)C(=O)N1 (centres unmarked) [Example 22, 3-(5-((7-(2,4-difluorophenyl)-5-(3-fluoroazetidin-1-yl)-3H-imidazo[4,5-b]pyridin-3-yl)methyl)-1-oxoisoindolin-2-yl)piperidine-2,6-dione] | 0.68 nM | 10.53 | 0.39 nM | 22.20 |
| Cc1nc2c(-c3ccc(F)cc3F)cc(N3CC(F)C3)nc2n1Cc1ccc2c(c1)CN(C1CCC(=O)NC1=O)C2=O (centres unmarked) [Example 23, 3-(5-((7-(2,4-difluorophenyl)-5-(3-fluoroazetidin-1-yl)-2-methyl-3H-imidazo[4,5-b]pyridin-3-yl)methyl)-1-oxoisoindolin-2-yl)piperidine-2,6-dione] | 1.03 nM | 7.69 | 0.62 nM | 20.44 |
| Cc1nc2c(-c3ncc(F)cc3Cl)cc(N3CC(F)C3)nc2n1Cc1ccc2c(c1)CN(C1CCC(=O)NC1=O)C2=O (centres unmarked) [Example 24, 3-(5-((7-(3-chloro-5-fluoropyridin-2-yl)-5-(3-fluoroazetidin-1-yl)-2-methyl-3H-imidazo[4,5-b]pyridin-3-yl)methyl)-1-oxoisoindolin-2-yl)piperidine-2,6-dione] | 29.6 nM | 5.76 | 4.05 nM | 23.72 |
| O=C1CCC(N2Cc3cc(Cn4cnc5c(-c6ncc(F)cc6Cl)cc(N6CC(F)C6)nc54)ccc3C2=O)C(=O)N1 (centres unmarked) [Example 25, 3-(5-((7-(3-chloro-5-fluoropyridin-2-yl)-5-(3-fluoroazetidin-1-yl)-3H-imidazo[4,5-b]pyridin-3-yl)methyl)-1-oxoisoindolin-2-yl)piperidine-2,6-dione] | 21.1 nM | 5.97 | 146 nM | 46.08 |
| O=C1CCC(N2Cc3cc(Cn4ncc5c(-c6ncc(C(F)(F)F)cc6Cl)cc(N6CC(F)C6)cc54)ccc3C2=O)C(=O)N1 (centres unmarked) [Example 26, 3-(5-((4-(3-chloro-5-(trifluoromethyl)pyridin-2-yl)-6-(3-fluoroazetidin-1-yl)-1H-indazol-1-yl)methyl)-1-oxoisoindolin-2-yl)piperidine-2,6-dione] | 8.5 nM | 11.53 | 2.32 nM | 24.69 |
| O=C1CC[C@H](N2Cc3cc(Cn4ccc5c(-c6ncc(C(F)(F)F)cc6Cl)nc(N6CC(F)C6)nc54)ccc3C2=O)C(=O)N1 [Example 28, (S)-3-(5-((4-(3-chloro-5-(trifluoromethyl)pyridin-2-yl)-2-(3-fluoroazetidin-1-yl)-7H-pyrrolo[2,3-d]pyrimidin-7-yl)methyl)-1-oxoisoindolin-2-yl)piperidine-2,6-dione] | 0.38 nM | 7.63 | 0.45 nM | 25.69 |
| Cc1cc(C(F)(F)F)cnc1-c1cc(N2CC(F)C2)nc2c1cnn2Cc1ccc2c(c1)CN(C1CCC(=O)NC1=O)C2=O (centres unmarked) [Example 29, 3-(5-{[6-(3-fluoroazetidin-1-yl)-4-[3-methyl-5-(trifluoromethyl)pyridin-2-yl]-1H-pyrazolo[3,4-b]pyridin-1-yl]methyl}-1-oxo-2,3-dihydro-1H-isoindol-2-yl)piperidine-2,6-dione] | 0.71 nM | 8.83 | 1.23 nM | 30.94 |
| O=C1CC[C@H](N2Cc3cc(Cn4ncc5c(-c6ccc(F)cc6F)cc(N6CC(F)C6)nc54)ccc3C2=O)C(=O)N1 [Example 30, (3S)-3-(5-{[4-(2,4-difluorophenyl)-6-(3-fluoroazetidin-1-yl)-1H-pyrazolo[3,4-b]pyridin-1-yl]methyl}-1-oxo-2,3-dihydro-1H-isoindol-2-yl)piperidine-2,6-dione] | 0.72 nM | 7.40 | 0.77 nM | 26.67 |
